From patent publication US9561231B2 (AbbVie Inc., priority 2012, dated 2017)
Like-named read-outs stand apart in the source and are kept apart here.

Assays:
[1] = system: breast cancer cell line MX-1; experiment: MX-1 cell line proliferation assay (3-day); format: cell-based; details: Homo sapiens, MX1, MX-1 cells, Cell Titer Glo, read-out: Cellular proliferation: EC50
How it was run: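 MX-1 cells in RPMI/10% FBS, plated 5000/well overnight, then exposed to compound at final 3 to 0.0001 μM (3-fold series) for 3 days at 37° C. Cell Titer Glo luminescence normalized to DMSO-treated cells; EC50 from sigmoidal curve fit.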

[2] = system: LPS induced IL-6 production; experiment: LPS (lipopolysaccharide) induced IL-6 production mouse assay; details: 1 h before LPS 2.5 mg/kg i.p., serum IL-6 2 h after LPS, p<0.05
Description: Severe combined immunodeficient female mice (5 per group) received an intraperitoneal challenge of lipopolysaccharide (2.5 mg/kg, L2630 E. coli 0111:B4) one hour after oral administration of compounds. Mice were euthanized 2 hours after lipopolysaccharide injection, blood was removed by cardiac puncture, and then the serum harvested from the blood samples was frozen at −80° C. On the day of the assay the serum samples were brought to room temperature and then diluted 1:20 in phosphate-buffered saline containing 2% bovine serum albumin. Interleukin-6 measurements were performed using a cytokine assay from Meso Scale Discovery (Gaithersburg, Md.) for mouse serum analysis according to the manufacturer's protocol and read on a SECTOR Imager 6000 (Meso Scale Discovery, Gaithersburg, Md.) instrument. Statistical analysis was performed using Prism software (version 5.0) incorporating Dunnett's one way ANOVA. The IL-6 mean and standard deviation of the group of vehicle treated animals were compared with the IL-6 mean and standard deviation of the group treated with drug. A p value <0.05 means that there is less than a 5% probability that the mean values in the two groups are equal.

[3] = biological target: T1, first (BD1: amino acids K57-E168) bromodomain of BRD4 (Homo sapiens, UniProt O60885); experiment: TR-FRET bromodomain binding assay, BRD4 BD1; details: Ki calculated from IC50, probe Kd and probe concentration, read-out: TR-FRET Binding Ki: BRD4 (BDI_K57-E168)
T1 construct: His-tagged first (BD1: amino acids K57-E168)
How it was run: (§1)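 Displacement of Alexa647-labeled BET-inhibitor probe from His-tagged bromodomain, TR-FRET read-out; buffer 20 mM Na phosphate pH 6.0, 50 mM NaCl, 0.01% Triton X-100. IC50 by 4PL fit; Ki calculated from IC50, probe Kd and probe concentration.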

[4] = biological target: T2, second (BD2: amino acids E352-E168) bromodomain of BRD4 (Homo sapiens, UniProt O60885); experiment: TR-FRET bromodomain binding assay, BRD4 BD2; details: Ki calculated from IC50, probe Kd and probe concentration, read-out: TR-FRET Binding Ki: BRD4 (BDII_E352-M457)
T2 construct: protocol
How it was run: as §1

[5] = TR-FRET assay protocol (A-G, compound concentration range)
[6] = TR-FRET assay protocol (D, E or G) per compound

SMILES | EC50 ([1]; 72 hours with compound) [nM] | Ki [3, 6] [nM] | Ki [4, 6] [nM] | also measured
COc1cc(=O)n(C)nc1-c1cc(NS(C)(=O)=O)ccc1Oc1ccccc1 [Example 22, N-[3-(4-methoxy-1-methyl-6-oxo-1,6-dihydropyridazin-3-yl)-4-phenoxyphenyl]methanesulfonamide] | – | – | – | EC50 ([1]; 72 h incubation): 730 nM; Inhibition of LPS induced IL-6 production, % inhibition ([2]; 50 mg/kg oral): 53.9 @ 50 mg/kg %; Ki [3, 5]: 258 nM; Ki [4, 5]: 51.9 nM
Cn1cc(-c2cc(NS(C)(=O)=O)ccc2Oc2ccc(Cl)cc2)ccc1=O [Example 233, N-[4-(4-chlorophenoxy)-3-(1-methyl-6-oxo-1,6-dihydropyridin-3-yl)phenyl]methanesulfonamide] | – | – | – | EC50 ([1]; 72 h incubation): 423 nM; Inhibition of LPS induced IL-6 production, % inhibition ([2]; 30 mg/kg oral): 75.9 @ 30 mg/kg %; Ki [3, 5]: 19.2 nM; Ki [4, 5]: 110 nM
Cn1cc(-c2cc(NS(C)(=O)=O)ccc2Oc2ccccc2Cl)ccc1=O [Example 235, N-[4-(2-chlorophenoxy)-3-(1-methyl-6-oxo-1,6-dihydropyridin-3-yl)phenyl]methanesulfonamide] | – | – | – | EC50 ([1]; 72 h incubation): 238 nM; Inhibition of LPS induced IL-6 production, % inhibition ([2]; 30 mg/kg oral): 58.7 @ 30 mg/kg %; Ki [3, 5]: 47.6 nM; Ki [4, 5]: 17 nM
CCS(=O)(=O)Nc1ccc(Oc2ccc(F)cc2F)c(-c2ccc(=O)n(C)c2)c1 [Example 241, N-[4-(2,4-difluorophenoxy)-3-(1-methyl-6-oxo-1,6-dihydropyridin-3-yl)phenyl]ethanesulfonamide] | – | – | – | EC50 ([1]; 72 h incubation): 181 nM; Inhibition of LPS induced IL-6 production, % inhibition ([2]; 3 mg/kg oral): 73.9 @ 3 mg/kg %; Ki [3, 5]: 34.6 nM; Ki [4, 5]: 27.1 nM
Cc1cc(Oc2ccccc2)c(-c2ccc(=O)n(C)c2)cc1NS(C)(=O)=O [Example 257, N-[2-methyl-5-(1-methyl-6-oxo-1,6-dihydropyridin-3-yl)-4-phenoxyphenyl]methanesulfonamide] | – | – | – | EC50 ([1]; 72 h incubation): 173 nM; Inhibition of LPS induced IL-6 production, % inhibition ([2]; 30 mg/kg oral): 49.7 @ 30 mg/kg %; Ki [3, 5]: 18.1 nM; Ki [4, 5]: 31.6 nM
[2H]C([2H])(C)Oc1cc(=O)n(C)cc1-c1cc(NS(=O)(=O)CC)ccc1Oc1ccc(F)cc1F [Example 333, N-[4-(2,4-difluorophenoxy)-3-{4-[(1,1-^2H2)ethyloxy]-1-methyl-6-oxo-1,6-dihydropyridin-3-yl}phenyl]ethanesulfonamide] | – | – | – | Inhibition of LPS induced IL-6 production, % inhibition ([2]; 3 mg/kg oral): 63.6 @ 3 mg/kg %
CCS(=O)(=O)Nc1ccc(Oc2ccc(F)cc2F)c(-c2cn(C)c(=O)cc2-c2ccco2)c1 [Example 392, N-{4-(2,4-difluorophenoxy)-3-[4-(furan-2-yl)-1-methyl-6-oxo-1,6-dihydropyridin-3-yl]phenyl}ethanesulfonamide] | 69.2 | 22 | 4.29 | –
CCS(=O)(=O)Nc1ccc(Oc2ccc(F)cc2F)c(-c2cn(C)c(=O)cc2-c2ccoc2)c1 [Example 393, N-{4-(2,4-difluorophenoxy)-3-[4-(furan-3-yl)-1-methyl-6-oxo-1,6-dihydropyridin-3-yl]phenyl}ethanesulfonamide] | 70.7 | 11.9 | 2.49 | –
CCOc1cc(=O)n(C)cc1-c1cc(NS(=O)(=O)CC)ccc1O[C@H]1CC[C@H](NC(=O)OC(C)(C)C)CC1 [Example 395, tert-butyl(trans-4-{2-(4-ethoxy-1-methyl-6-oxo-1,6-dihydropyridin-3-yl)-4-[(ethylsulfonyl)amino]phenoxy}cyclohexyl)carbamate] | 479 | 105 | 221 | –
CCOc1cc(=O)n(C)cc1-c1cc(NS(=O)(=O)CC)ccc1Oc1ccc(F)cc1 [Example 396, N-[3-(4-ethoxy-1-methyl-6-oxo-1,6-dihydropyridin-3-yl)-4-(4-fluorophenoxy)phenyl]ethanesulfonamide] | 15.6 | 9.54 | 3.17 | –
CCOc1cc(=O)n(C)cc1-c1cc(S(=O)(=O)N2CCc3ccccc32)ccc1OCC1CC1 [Example 397, 5-[2-(cyclopropylmethoxy)-5-(2,3-dihydro-1H-indol-1-ylsulfonyl)phenyl]-4-ethoxy-1-methylpyridin-2(1H)-one] | 86.6 | 75.2 | 8.84 | –
CCS(=O)(=O)Nc1ccc(Oc2ccc(F)cc2F)c(-c2cn(C)c(=O)cc2OCC2CCNCC2)c1 [Example 399, N-{4-(2,4-difluorophenoxy)-3-[1-methyl-6-oxo-4-(piperidin-4-ylmethoxy)-1,6-dihydropyridin-3-yl]phenyl}ethanesulfonamide] | > 3000 | 31.1 | 20.1 | –
CCOc1cc(=O)n(C)cc1-c1cc(NS(=O)(=O)CC)ccc1Oc1ccc(F)c(F)c1 [Example 401, N-[4-(3,4-difluorophenoxy)-3-(4-ethoxy-1-methyl-6-oxo-1,6-dihydropyridin-3-yl)phenyl]ethanesulfonamide] | 25.1 | 19.8 | 4.99 | –
CCOc1cc(=O)n(C)cc1-c1cc(NS(=O)(=O)CC)ccc1Oc1cc(F)c(F)c(F)c1 [Example 402, N-[3-(4-ethoxy-1-methyl-6-oxo-1,6-dihydropyridin-3-yl)-4-(3,4,5-trifluorophenoxy)phenyl]ethanesulfonamide] | 55.2 | 32.3 | 16.6 | –
CCOc1cc(=O)n(C)cc1-c1cc(NS(=O)(=O)CC)ccc1Oc1ccc(Cl)cc1F [Example 403, N-[4-(4-chloro-2-fluorophenoxy)-3-(4-ethoxy-1-methyl-6-oxo-1,6-dihydropyridin-3-yl)phenyl]ethanesulfonamide] | 23.9 | 14.7 | 1.38 | –
CCOc1cc(=O)n(C)cc1-c1cc(NS(=O)(=O)CC)ccc1Oc1c(F)cc(Cl)cc1F [Example 404, N-[4-(4-chloro-2,6-difluorophenoxy)-3-(4-ethoxy-1-methyl-6-oxo-1,6-dihydropyridin-3-yl)phenyl]ethanesulfonamide] | 24.7 | 11.8 | 1.43 | –
CCOc1cc(=O)n(C)cc1-c1cc(NS(=O)(=O)CC)ccc1Oc1cccnc1 [Example 405, N-[3-(4-ethoxy-1-methyl-6-oxo-1,6-dihydropyridin-3-yl)-4-(pyridin-3-yloxy)phenyl]ethanesulfonamide] | 50.2 | 36.3 | 4.99 | –
CCS(=O)(=O)Nc1ccc(Oc2ccc(F)cc2F)c(-c2cn(C)c(=O)cc2-c2ccc(C)s2)c1 [Example 407, N-{4-(2,4-difluorophenoxy)-3-[1-methyl-4-(5-methylthiophen-2-yl)-6-oxo-1,6-dihydropyridin-3-yl]phenyl}ethanesulfonamide] | 72.3 | 6.92 | 2.06 | –
CCOc1cc(=O)n(C)cc1-c1cc(NS(=O)(=O)CC)ccc1Oc1ccc(C#N)cc1F [Example 408, N-[4-(4-cyano-2-fluorophenoxy)-3-(4-ethoxy-1-methyl-6-oxo-1,6-dihydropyridin-3-yl)phenyl]ethanesulfonamide] | 115 | 45.1 | 19.1 | –
CCOc1cc(=O)n(C)cc1-c1cc(NC(=O)c2cncs2)ccc1Oc1ccc(F)cc1F [Example 411, N-[4-(2,4-difluorophenoxy)-3-(4-ethoxy-1-methyl-6-oxo-1,6-dihydropyridin-3-yl)phenyl]-1,3-thiazole-5-carboxamide] | 254 | 61.3 | 47 | –
CCOc1cc(=O)n(C)cc1-c1cc(NC(=O)c2cc(Cl)ccc2Cl)ccc1Oc1ccc(F)cc1F [Example 412, 2,5-dichloro-N-[4-(2,4-difluorophenoxy)-3-(4-ethoxy-1-methyl-6-oxo-1,6-dihydropyridin-3-yl)phenyl]benzamide] | 251 | 28.9 | 11.9 | –
CCOc1cc(=O)n(C)cc1-c1cc(NC(=O)c2ccccn2)ccc1Oc1ccc(F)cc1F [Example 415, N-[4-(2,4-difluorophenoxy)-3-(4-ethoxy-1-methyl-6-oxo-1,6-dihydropyridin-3-yl)phenyl]pyridine-2-carboxamide] | 279 | 40.5 | 33.3 | –
CCOc1cc(=O)n(C)cc1-c1cc(S(=O)(=O)N2CCc3ccccc32)ccc1Oc1ccc(F)cc1F [Example 419, 5-[2-(2,4-difluorophenoxy)-5-(2,3-dihydro-1H-indol-1-ylsulfonyl)phenyl]-4-ethoxy-1-methylpyridin-2(1H)-one] | 1000 | 25.3 | 2.84 | –
CCOc1cc(=O)n(C)cc1-c1cc(N(C)S(=O)(=O)Cc2ccccc2)ccc1Oc1ccc(F)cc1F [Example 420, N-[4-(2,4-difluorophenoxy)-3-(4-ethoxy-1-methyl-6-oxo-1,6-dihydropyridin-3-yl)phenyl]-N-methyl-1-phenylmethanesulfonamide] | 832 | > 238 | 22.1 | –
